Measurements: ChEMBL document CHEMBL6092194, “Development of membrane-targeting chalcone derivatives as antibacterial agents against multidrug-resistant bacteria” (Eur J Med Chem, 2024)
In brackets after ≈: the same amount, converted by molar mass. Activity calls are given as the source filed them. The rule behind the calls is not given here.

Tests used:
Staphylococcus aureus [1] = assay: Drug resistance, ratio of MIC for Staphylococcus aureus ATCC43300 measured after 17 passages to MIC for Staphylococcus aureus ATCC43300 measured after first exposure; assay type: functional
Bacillus subtilis = assay: Antibacterial activity against penicillin-susceptible Bacillus subtilis ATCC9372 by broth microdilution assay; assay type: functional
Enterococcus faecalis = assay: Antibacterial activity against vancomycin susceptible Enterococcus faecalis ATCC29212 by broth microdilution assay; assay type: functional
Klebsiella pneumoniae = assay: Antibacterial activity against Klebsiella pneumoniae ATCC10031 by broth microdilution assay; assay type: functional
Acinetobacter baumannii = assay: Antibacterial activity against Acinetobacter baumannii ATCC19606 by broth microdilution assay; assay type: functional
Escherichia coli = assay: Antibacterial activity against penicillin-susceptible Escherichia coli ATCC25922 by broth microdilution method; assay type: functional
Pseudomonas aeruginosa = assay: Antibacterial activity against penicillin-susceptible Pseudomonas aeruginosa ATCC27853 by broth microdilution method; assay type: functional
Staphylococcus aureus [2] = assay: Antibacterial activity against Staphylococcus aureus ATCC43300 infected in sepsis mouse model assessed as reduction in liver damage at 5 mg/kg pre-infected with bacteria for 1 hrs followed by compound administration at 12 hrs interval for 2 days by H and E staining based analysis; assay type: functional, organism-based; settings: time 2.0 day
Staphylococcus aureus [3] = assay: Antibacterial activity against Staphylococcus aureus ATCC43300 infected in sepsis mouse model assessed as reduction in spleen damage at 5 mg/kg pre-infected with bacteria for 1 hrs followed by compound administration at 12 hrs interval for 2 days by H and E staining based analysis; assay type: functional, organism-based; settings: time 2.0 day
Staphylococcus aureus [4] = assay: Antibacterial activity against Staphylococcus aureus ATCC43300 infected in sepsis mouse model assessed as reduction in kidney damage at 5 mg/kg pre-infected with bacteria for 1 hrs followed by compound administration at 12 hrs interval for 2 days by H and E staining based analysis; assay type: functional, organism-based; settings: time 2.0 day
Staphylococcus aureus [5] = assay: Antibacterial activity against Staphylococcus aureus ATCC43300 infected in sepsis mouse model assessed as reduction in liver inflammation at 5 mg/kg pre-infected with bacteria for 1 hrs followed by compound administration at 12 hrs interval for 2 days by H and E staining based analysis; assay type: functional, organism-based; settings: time 2.0 day
Staphylococcus aureus [6] = assay: Antibacterial activity against Staphylococcus aureus ATCC43300 infected in sepsis mouse model assessed as reduction in spleen inflammation at 5 mg/kg pre-infected with bacteria for 1 hrs followed by compound administration at 12 hrs interval for 2 days by H and E staining based analysis; assay type: functional, organism-based; settings: time 2.0 day
Staphylococcus aureus [7] = assay: Antibacterial activity against Staphylococcus aureus ATCC43300 infected in sepsis mouse model assessed as reduction in kidney inflammation at 5 mg/kg pre-infected with bacteria for 1 hrs followed by compound administration at 12 hrs interval for 2 days by H and E staining based analysis; assay type: functional, organism-based; settings: time 2.0 day
Staphylococcus aureus [8] = assay: Antibacterial activity against erythromycin susceptible Staphylococcus aureus ATCC25923 by broth microdilution assay; assay type: functional
Staphylococcus aureus [9] = assay: Antibacterial activity against penicillin-resistant Staphylococcus aureus ATCC31007 by broth microdilution assay; assay type: functional
Staphylococcus aureus [10] = assay: Antibacterial activity against penicillin-resistant Staphylococcus aureus ATCC43300 by broth microdilution assay; assay type: functional
[11] = tested on: Staphylococcus epidermidis; assay: Antibacterial activity against erythromycin-susceptible Staphylococcus epidermidis ATCC12228 by broth microdilution assay; assay type: functional
[12] = Hemolytic activity in red blood cells (unknown origin); assay type: toxicity, cell-based, Erythrocyte
[13] = Selectivity index, ratio of HC50 for hemolytic activity in red blood cells (unknown origin) to MIC for antibacterial activity against penicillin-resistant Staphylococcus aureus ATCC43300; assay type: toxicity, cell-based, RBC; settings: read-out: Selectivity Index
[14] = Selectivity index, ratio of HC50 for hemolytic activity in red blood cells (unknown origin) to MIC for antibacterial activity against penicillin-susceptible Escherichia coli ATCC25922; assay type: toxicity, cell-based, RBC; settings: read-out: Selectivity Index

Row | Compound | Ratio (Staphylococcus aureus [1]) | MIC (Bacillus subtilis) | MIC (Enterococcus faecalis) | MIC (Klebsiella pneumoniae) | MIC (Acinetobacter baumannii) | MIC (Escherichia coli) | MIC (Pseudomonas aeruginosa) | Activity (Staphylococcus aureus [2]) | Activity (Staphylococcus aureus [3]) | Activity (Staphylococcus aureus [4]) | Activity (Staphylococcus aureus [5]) | Activity (Staphylococcus aureus [6]) | Activity (Staphylococcus aureus [7]) | MIC (Staphylococcus aureus [8]) | MIC (Staphylococcus aureus [9]) | MIC (Staphylococcus aureus [10]) | MIC [11] | HC50 [12] | selectivity ratio [13] | selectivity ratio [14]
1 | CCn1cc(C(=O)O)c(=O)c2cc(F)c(N3CCNCC3)cc21 [NORFLOXACIN] | 256 |  |  |  |  |  |  |  |  |  |  |  |  |  |  |  |  |  |  | 
2 | CN[C@H](CC(C)C)C(=O)N[C@H]1C(=O)N[C@@H](CC(N)=O)C(=O)N[C@H]2C(=O)N[C@H]3C(=O)N[C@H](C(=O)N[C@H](C(=O)O)c4cc(O)cc(O)c4-c4cc3ccc4O)[C@H](O)c3ccc(c(Cl)c3)Oc3cc2cc(c3O[C@@H]2O[C@H](CO)[C@@H](O)[C@H](O)[C@H]2O[C@H]2C[C@](C)(N)[C@H](O)[C@H](C)O2)Oc2ccc(cc2Cl)[C@H]1O [VANCOMYCIN] |  | 0.5 µg/mL (≈ 0.345 µM) | 2 µg/mL (≈ 1.38 µM) | 128 µg/mL (≈ 88.3 µM) | 16 µg/mL (≈ 11 µM) | 128 µg/mL (≈ 88.3 µM) | > 128 µg/mL | Active | Active | Active | Active | Active | Active |  |  |  |  |  |  | 
3 | CCCCCC[N+](C)(C)CCCOc1ccc(/C=C/C(=O)c2ccc(OCCC[N+](C)(C)CCCCCC)cc2)cc1.[Br-].[Br-] |  | 0.5 µg/mL | 1 µg/mL | 4 µg/mL | 16 µg/mL | 4 µg/mL | 32 µg/mL |  |  |  |  |  |  | 1 µg/mL | 1 µg/mL | 1 µg/mL | 0.5 µg/mL | 1130 µg/mL | 1130 | 283
4 | CCCCCCCCCCCCCC[N+](C)(C)CCCOc1ccc(C(=O)/C=C/c2ccccc2)cc1.[Br-] |  | 32 µg/mL | 32 µg/mL | 128 µg/mL | 128 µg/mL | > 128 µg/mL | > 128 µg/mL |  |  |  |  |  |  | 8 µg/mL | 64 µg/mL | 32 µg/mL | 16 µg/mL | 39 µg/mL | 9.8 | 
5 | CCCCCCCCCCCC[N+](C)(C)CCCOc1ccc(/C=C/C(=O)c2ccc(OCCC[N+](C)(C)CCCCCCCCCCCC)cc2)cc1.[Br-].[Br-] |  | > 128 µg/mL | > 128 µg/mL | > 128 µg/mL | > 128 µg/mL | > 128 µg/mL | > 128 µg/mL |  |  |  |  |  |  | 16 µg/mL | 16 µg/mL | > 128 µg/mL | 64 µg/mL | 21.2 µg/mL | < 0.2 | 
6 | CCCCCC(=O)Nc1cc[n+](CCCOc2ccc(C(=O)/C=C/c3ccccc3)cc2)cc1.[Br-] |  | 4 µg/mL | 8 µg/mL | > 128 µg/mL | > 128 µg/mL | > 128 µg/mL | > 128 µg/mL |  |  |  |  |  |  | 2 µg/mL | 4 µg/mL | 4 µg/mL | > 128 µg/mL | > 1280 µg/mL | > 320 | 
7 | CCCC[N+](C)(C)CCCCCCCOc1ccc(C(=O)/C=C/c2ccccc2)cc1.[Br-] |  | 32 µg/mL | 32 µg/mL | 32 µg/mL | 64 µg/mL | > 128 µg/mL | > 128 µg/mL |  |  |  |  |  |  | 8 µg/mL | 16 µg/mL | 8 µg/mL | 16 µg/mL | 130 µg/mL | 16.3 | 
8 | CCCCCCCCNC(=O)C[N+](C)(C)CCCOc1ccc(/C=C/C(=O)c2ccc(OCCC[N+](C)(C)CC(=O)NCCCCCCCC)cc2)cc1.[Br-].[Br-] |  | 4 µg/mL | 4 µg/mL | 32 µg/mL | 16 µg/mL | 8 µg/mL | 128 µg/mL |  |  |  |  |  |  | 4 µg/mL | 8 µg/mL | 4 µg/mL | 8 µg/mL | 69.5 µg/mL | 17.4 | 
9 | CCCCCCCCCCCCNC(=O)C[N+](C)(C)CCCOc1ccc(/C=C/C(=O)c2ccc(OCCC[N+](C)(C)CC(=O)NCCCCCCCCCCCC)cc2)cc1.[Br-].[Br-] |  | 128 µg/mL | > 128 µg/mL | > 128 µg/mL | > 128 µg/mL | > 128 µg/mL | > 128 µg/mL |  |  |  |  |  |  | > 128 µg/mL | > 128 µg/mL | > 128 µg/mL | > 128 µg/mL | 703 µg/mL | < 5.5 | 
10 | CCCCCC[N+](C)(C)CCCCCOc1ccc(C(=O)/C=C/c2ccccc2)cc1.[Br-] |  | 8 µg/mL | 16 µg/mL | 32 µg/mL | 64 µg/mL | > 128 µg/mL | > 128 µg/mL |  |  |  |  |  |  | 2 µg/mL | 16 µg/mL | 16 µg/mL | 8 µg/mL | 112 µg/mL | 7 | 
11 | CCCCCCCCCCCC[N+](C)(C)CCCCCOc1ccc(C(=O)/C=C/c2ccccc2)cc1.[Br-] |  | 8 µg/mL | 16 µg/mL | > 128 µg/mL | 128 µg/mL | > 128 µg/mL | > 128 µg/mL |  |  |  |  |  |  | 8 µg/mL | 16 µg/mL | 8 µg/mL | 8 µg/mL | 167 µg/mL | 20.9 | 
12 | CC(C)=CC(=O)Nc1cc[n+](CCCOc2ccc(C(=O)/C=C/c3ccccc3)cc2)cc1.[Br-] |  | > 128 µg/mL | > 128 µg/mL | > 128 µg/mL | > 128 µg/mL | > 128 µg/mL | > 128 µg/mL |  |  |  |  |  |  | > 128 µg/mL | > 128 µg/mL | > 128 µg/mL | > 128 µg/mL | > 1280 µg/mL | > 10 | 
13 | CCCCCCCCCC(=O)Nc1cc[n+](CCCOc2ccc(C(=O)/C=C/c3ccccc3)cc2)cc1.[Br-] |  | 2 µg/mL | 8 µg/mL | > 128 µg/mL | 64 µg/mL | 32 µg/mL | > 128 µg/mL |  |  |  |  |  |  | 4 µg/mL | 4 µg/mL | 4 µg/mL | 16 µg/mL | 871 µg/mL | 218 | 
14 | CCCC[N+](C)(C)CCCOc1ccc(C(=O)/C=C/c2ccccc2)cc1.[Br-] |  | 64 µg/mL | 64 µg/mL | 128 µg/mL | > 128 µg/mL | 128 µg/mL | > 128 µg/mL |  |  |  |  |  |  | 16 µg/mL | 64 µg/mL | 32 µg/mL | 16 µg/mL | 96.3 µg/mL | 3 | 
15 | CCCCCCCCCCCC[N+](C)(C)CCCCCCCOc1ccc(C(=O)/C=C/c2ccccc2)cc1.[Br-] |  | 16 µg/mL | 32 µg/mL | > 128 µg/mL | > 128 µg/mL | > 128 µg/mL | > 128 µg/mL |  |  |  |  |  |  | 16 µg/mL | 64 µg/mL | 16 µg/mL | 16 µg/mL | 47.4 µg/mL | 3 | 
16 | CCCCCCCCCC[N+](C)(C)CCCOc1ccc(/C=C/C(=O)c2ccc(OCCC[N+](C)(C)CCCCCCCCCC)cc2)cc1.[Br-].[Br-] |  | 2 µg/mL | 2 µg/mL | 64 µg/mL | 128 µg/mL | 8 µg/mL | 32 µg/mL |  |  |  |  |  |  | 8 µg/mL | 2 µg/mL | 2 µg/mL | 1 µg/mL | 44 µg/mL | 22 | 
17 | CCCC[N+](C)(C)CCCOc1ccc(/C=C/C(=O)c2ccc(OCCC[N+](C)(C)CCCC)cc2)cc1.[Br-].[Br-] |  | 8 µg/mL | 4 µg/mL | 128 µg/mL | > 128 µg/mL | 128 µg/mL | > 128 µg/mL |  |  |  |  |  |  | 2 µg/mL | 2 µg/mL | 8 µg/mL | 2 µg/mL | 590 µg/mL | 73.8 | 
18 | CCCCCCCC[N+](C)(C)CCCOc1ccc(C(=O)/C=C/c2ccccc2)cc1.[Br-] |  | 2 µg/mL | 8 µg/mL | 4 µg/mL | 8 µg/mL | 64 µg/mL | 64 µg/mL |  |  |  |  |  |  | 1 µg/mL | 4 µg/mL | 1 µg/mL | 1 µg/mL | 17.2 µg/mL | 17.2 | 
19 | CCCC[N+](C)(C)CCCCCOc1ccc(C(=O)/C=C/c2ccccc2)cc1.[Br-] |  | 32 µg/mL | 32 µg/mL | 64 µg/mL | 128 µg/mL | > 128 µg/mL | > 128 µg/mL |  |  |  |  |  |  | 8 µg/mL | 64 µg/mL | 32 µg/mL | 16 µg/mL | 538 µg/mL | 16.8 | 
